IC50 data for 4 compounds are collected here from patent US20050080096A1, “Condensed heterocyclic compounds” (priority 2002, published 2005).

SMILES strings stand for the structures. A value given as a limit tells only on which side of the number the result lay.

For this experiment, the target named is recombinant human PARP (Homo sapiens, UniProt P09874). The experiment is described as follows: PARP Inhibitory Activity (In vitro assay). Format: biochemical. Conditions: 32P-NAD, activated DNA, 15 minutes at room temperature, pH8.0. Here is the method: The recombinant human PARP (5.3 mg protein/ml) were incubated with a test compound in a 100 μl reaction buffer containing the indicated concentration of 1 mCi/ml ^32P-NAD, 50 mM Tris-HCl, 25 mM MgCl2, 1 mM DTT (dithiothreitol), 0.05 mM NAD (nicotinamido adenine dinucleotide), lmg/mi activated DNA, pH8.0. Incubation was for 15 minutes at a room temperature and the reaction was stopped by the addition of 200 μl of ice-cold 20% trichloroacetic acid followed by rapid filtration through GF/B filters. The filters were treated with scintillation fluid and acid-insoluble counts were measured for quantification of unit activity.
Sequence of recombinant human PARP (P09874 whole entry): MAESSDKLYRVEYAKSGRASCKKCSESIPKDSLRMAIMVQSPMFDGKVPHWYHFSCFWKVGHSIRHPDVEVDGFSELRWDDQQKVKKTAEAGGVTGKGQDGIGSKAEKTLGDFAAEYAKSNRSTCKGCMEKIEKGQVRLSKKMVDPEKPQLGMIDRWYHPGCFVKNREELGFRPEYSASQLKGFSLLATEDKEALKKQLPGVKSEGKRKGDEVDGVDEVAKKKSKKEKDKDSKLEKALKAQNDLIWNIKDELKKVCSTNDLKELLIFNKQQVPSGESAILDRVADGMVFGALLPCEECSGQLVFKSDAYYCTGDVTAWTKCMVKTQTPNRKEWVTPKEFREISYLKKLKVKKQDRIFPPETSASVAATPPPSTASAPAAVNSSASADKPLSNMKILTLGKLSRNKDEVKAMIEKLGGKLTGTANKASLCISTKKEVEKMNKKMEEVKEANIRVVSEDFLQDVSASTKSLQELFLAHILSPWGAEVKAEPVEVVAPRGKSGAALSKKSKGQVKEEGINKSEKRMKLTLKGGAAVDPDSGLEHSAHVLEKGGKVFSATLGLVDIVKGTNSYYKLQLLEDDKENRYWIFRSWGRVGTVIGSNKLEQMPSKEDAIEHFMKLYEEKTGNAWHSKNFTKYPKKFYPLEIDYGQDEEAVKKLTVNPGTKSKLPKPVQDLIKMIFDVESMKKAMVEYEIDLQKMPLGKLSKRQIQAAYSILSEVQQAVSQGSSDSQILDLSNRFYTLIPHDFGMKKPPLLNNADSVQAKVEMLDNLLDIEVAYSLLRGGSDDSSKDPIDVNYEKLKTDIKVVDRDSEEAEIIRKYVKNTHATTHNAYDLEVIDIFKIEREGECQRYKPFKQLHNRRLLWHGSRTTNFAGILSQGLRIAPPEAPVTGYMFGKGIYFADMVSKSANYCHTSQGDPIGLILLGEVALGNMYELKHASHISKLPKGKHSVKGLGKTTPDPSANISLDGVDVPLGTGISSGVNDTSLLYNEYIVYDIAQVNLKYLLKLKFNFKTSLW
PARP Inhibitory Activity (%)=
[1-(enzyme activity with test compound)/(enzyme activity with vehicle)]×100
Regarding `O=c1[nH]c(CCCN2CC=C(c3ccccc3)CC2)nc2c1CCCC2` [Compound A, 2-[3-(4-Phenyl-3,6-dihydro-1(2H)-pyridyl)propyl]-5,6,7,8-tetrahydro-4(3H)-quinazolinone], the IC50 (commonly the concentration that gives 50% inhibition) was < 500 nM.

Take `O=c1[nH]c(CCCN2CC=C(c3ccccc3)CC2)nc2c1CSCC2` [Compound B, 2-[3-(4-Phenyl-3,6-dihydro-1(2H)-pyridyl)propyl]-3,5,7,8-tetrahydro4H-thiopyrano[4,3-d]pyrimidin-4-one]: the IC50 was < 500 nM. Next, `O=c1[nH]nc(CCCCN2CC=C(c3ccccc3)CC2)c2ccccc12` [Compound C, 4-[4-(4-Phenyl-3,6dihydro-1(2H)-pyridyl)butyl]-1(2H)-phthalazinone]: < 500 nM; `Cn1c2c(c3ccccc31)CCN(CCCCc1n[nH]c(=O)c3ccccc13)C2` [Compound D]: < 500 nM.
